Results as given in US20250073248A1, “BIORESORBABLE CATIONIC STEROIDAL ANTIMICROBIAL COMPOUNDS WITH GLYCERIDE LINKAGES” (BRIGHAM YOUNG UNIVERSITY, priority 2023, published 2025).
Values after ≈ are worked out from the molar mass of the structure shown.

How the values were obtained:
MRSA ATCC BAA-42 = assay: Membrane depolarization, DiSC2(5) fluorescence; assay type: cell-based, Staphylococcus aureus; conditions: 8 μg/mL, FIG. 5
Experimental: Reference is made to FIGS. 4 and 5. […] CSA-131 or CSA-4110 was added at 140 second to achieve 8 μg/mL after addition.
Antimicrobial peptides (AMPs) and CSA compounds are known to permeabilize bacterial membranes. For bacterial survival, the cytoplasmic membrane must be polarized. Depolarization of this membrane prevents ATP synthesis and leads to cell death. The dye 3,3′-diethylthiadicarbocyanine iodide (DiSC2(5)) can be used to measure cell membrane polarization. Fluorescence of this dye is decreased when it inserts into polarized membranes, and membrane depolarization results in substantial increases in fluorescence (see FIG. 5).
MRSA was used to explore the impact of CSA-4110 on membrane depolarization and compared results to those with ceragenin CSA-131. […] Fluorescence was monitored over time after addition of CSA-4110 or CSA-131. which incorporated into cellular membranes.

[1] = system: strains of Staphylococcus aureus, Pseudomonas aeruginosa, and Candida albicans; conditions: previous work; strains of S. aureus, P. aeruginosa, C. albicans; cited from earlier work
[2] = system: Pseudomonas aeruginosa 01 (PA01); assay: MIC and MBC, broth microdilution, PA01 (Table 1); assay type: cell-based; conditions: for MBC / MIC: Pseudomonas aeruginosa; for MBC / MBC or MFC: value in parentheses; for MIC: first value of cell
Text: (§1) To investigate the antimicrobial impact of structural variance in the novel bioresorbable CSA compounds disclosed herein,Pseudomonas aeruginosa 01 (PA01), methicillin-resistant Staphylococcus aureus (MRSA), and Candida albicans (CA) were selected, representing Gram-negative bacterial, Gram-positive bacterial, and fungal pathogens of high or critical priority on the world health organization's priority lists for bacteria and fungi. Earlier applications of CSA compounds have focused on preventing medical device infections, and all three strains are commonly found in colonized implants, making efficacy against these pathogens an important indicator of future applicability.
(§2) All compounds were screened against these pathogens to determine their minimum inhibitory concentration (MIC), minimum bactericidal concentration (MBC), and minimum fungicidal concentration (MFC) using a broth microdilution method. […] Of these three, only CSA-4110 was similarly active against PA01and CA, inhibiting growth at 8 μg/mL.

Candida albicans (CA) = assay: MIC and MFC, broth microdilution, CA (Table 1); assay type: cell-based; conditions: for MBC / MIC: Candida albicans; for MBC / MBC or MFC: MFC, value in parentheses; for MIC: first value of cell
Text: as §1, §2

[3] = system: methicillin-resistant Staphylococcus aureus (MRSA); assay: MIC and MBC, broth microdilution, MRSA (Table 1); assay type: cell-based; conditions: for MBC / MIC: Staphylococcus aureus; for MIC: first value of cell
Text: as §1, §2

Candida albicans 90028 = assay: Example 1 MIC/MFC (FIG. 1, FIG. 2), C. albicans; assay type: cell-based
Experimental: (§3) The antimicrobial activities of CSA-4108, CSA-4110, CSA-4112, and CSA-4114 were determined relative to methicillin-resistant Staphylococcus aureus (MRSA), Pseudomonas aeruginosa (Pa), and Candida albicans 90028. The minimum inhibitory concentration (MIC) for CSA-4108, CSA-4110, CSA-4112, and CSA-4114 relative to the foregoing microbes is graphically reported in FIG. 1. The minimum bactericidal concentration (MBC) and minimum fungicidal concentration […] for CSA-4108, CSA-4110, CSA-4112, and CSA-4114 relative to the foregoing microbes are graphically reported in FIG. 2.

PA01, MRSA and CA = assay: MIC, MBC and MFC screen, all three pathogens (summary statements); assay type: cell-based; conditions: compared with CSA-4110
Text: as §1, §2

[4] = system: methicillin-resistant Staphylococcus aureus (MRSA); assay: Example 1 MIC/MBC (FIG. 1, FIG. 2), MRSA; assay type: cell-based
Experimental: as §3

[5] = MBC, value in parentheses, kills at least 99.9%

Row | SMILES | speed of depolarization of MRSA cells, comparison (MRSA ATCC BAA-42) | fluorescence of DiSC2(5) after addition (membrane depolarization) (MRSA ATCC BAA-42; added at 140 seconds) | MICs [1] | MBC [2] | MIC [2] | MBC (Candida albicans (CA)) | MIC (Candida albicans (CA)) | MBC or MFC (Candida albicans (CA)) | MBC [3, 5] | MIC [3] | MIC (FIG. 1), ranking in words (Candida albicans 90028) | antimicrobial activity in MIC and MBC/MFC assays, in words (PA01, MRSA and CA) | MFC (FIG. 2), ranking in words (Candida albicans 90028) | MIC (FIG. 1), ranking in words [4] | MBC or MFC [2] | MBC or MFC [3, 5]
1 | CCCCCCCCCCCCNCCC[C@@H](C)[C@H]1CC[C@H]2[C@@H]3[C@H](OCCCN)C[C@@H]4C[C@H](OCCCN)CC[C@]4(C)[C@H]3C[C@H](OCCCN)[C@]12C.Cl.Cl.Cl.Cl [CSA-131] | more rapidly than CSA-4110 | rapid increase of fluorescence | 0.5 to 2 µg/mL | – | – | – | – | – | – | – | – | – | – | – | – | –
2 | CCCCCCCC(=O)OCC(O)COC(=O)CC[C@@H](C)[C@H]1CC[C@H]2[C@@H]3[C@H](OC(=O)CCN)C[C@@H]4C[C@H](OC(=O)CCN)CC[C@]4(C)[C@H]3C[C@H](OC(=O)CCN)[C@]12C (stereo partly shown) [CSA-4108] | – | – | – | > 100 µg/mL | 64 µg/mL (≈ 77.8 µM) | 16 µg/mL (≈ 19.5 µM) | 16 µg/mL (≈ 19.5 µM) | 16 (16) μg/mL | 32 µg/mL (≈ 38.9 µM) | 16 µg/mL (≈ 19.5 µM) | same MIC | – | – | – | – | –
3 | CCCCCCCCCC(=O)OC[C@@H](O)COC(=O)CC[C@@H](C)[C@H]1CC[C@H]2[C@@H]3[C@H](OC(=O)CCN)C[C@@H]4C[C@H](OC(=O)CCN)CC[C@]4(C)[C@H]3C[C@H](OC(=O)CCN)[C@]12C [CSA-4110R] | – | – | – | 8 µg/mL (≈ 9.41 µM) | 4 µg/mL (≈ 4.71 µM) | 8 µg/mL (≈ 9.41 µM) | 8 µg/mL (≈ 9.41 µM) | – | 4 µg/mL (≈ 4.71 µM) | 4 µg/mL (≈ 4.71 µM) | – | performed comparably to CSA-4110 | – | – | – | –
4 | CCCCCCCCCC(=O)OC[C@H](O)COC(=O)CC[C@@H](C)[C@H]1CC[C@H]2[C@@H]3[C@H](OC(=O)CCN)C[C@@H]4C[C@H](OC(=O)CCN)CC[C@]4(C)[C@H]3C[C@H](OC(=O)CCN)[C@]12C [CSA-4110S] | – | – | – | 16 µg/mL (≈ 18.8 µM) | 8 µg/mL (≈ 9.41 µM) | 8 µg/mL (≈ 9.41 µM) | 8 µg/mL (≈ 9.41 µM) | – | 4 µg/mL (≈ 4.71 µM) | 4 µg/mL (≈ 4.71 µM) | – | performed comparably to CSA-4110 | – | – | – | –
5 | CCCCCCCCCCCC(=O)OCC(O)COC(=O)CC[C@@H](C)[C@H]1CC[C@H]2[C@@H]3[C@H](OC(=O)CCN)C[C@@H]4C[C@H](OC(=O)CCN)CC[C@]4(C)[C@H]3C[C@H](OC(=O)CCN)[C@]12C (stereo partly shown) [CSA-4112] | – | – | – | 64 µg/mL (≈ 72.9 µM) | 64 µg/mL (≈ 72.9 µM) | 16 µg/mL (≈ 18.2 µM) | 16 µg/mL (≈ 18.2 µM) | 16 (16) μg/mL | 32 µg/mL (≈ 36.4 µM) | 16 µg/mL (≈ 18.2 µM) | same MIC | – | – | – | – | –
6 | CCCCCCCCCCCCCC(=O)OCC(O)COC(=O)CC[C@@H](C)[C@H]1CC[C@H]2[C@@H]3[C@H](OC(=O)CCN)C[C@@H]4C[C@H](OC(=O)CCN)CC[C@]4(C)[C@H]3C[C@H](OC(=O)CCN)[C@]12C (stereo partly shown) [CSA-4114] | – | – | – | > 100 µg/mL | > 100 µg/mL | 64 µg/mL (≈ 70.6 µM) | 64 µg/mL (≈ 70.6 µM) | – | > 100 µg/mL | 64 µg/mL (≈ 70.6 µM) | highest MIC | – | highest MFC | highest MIC | – | –
7 | CCCC(=O)OCC(COC(=O)CC[C@@H](C)[C@H]1CC[C@H]2[C@@H]3[C@H](OC(=O)CCN)C[C@@H]4C[C@H](OC(=O)CCN)CC[C@]4(C)[C@H]3C[C@H](OC(=O)CCN)[C@]12C)OC(=O)CCC (stereo partly shown) [CSA-4204] | – | – | – | 100 µg/mL (≈ 120 µM) | 64 µg/mL (≈ 76.5 µM) | 32 µg/mL (≈ 38.3 µM) | 16 µg/mL (≈ 19.1 µM) | – | 8 µg/mL (≈ 9.57 µM) | ≤ 8 µg/mL | – | – | – | – | > 100 µg/mL | –
8 | CCCCCC(=O)OCC(COC(=O)CC[C@@H](C)[C@H]1CC[C@H]2[C@@H]3[C@H](OC(=O)CCN)C[C@@H]4C[C@H](OC(=O)CCN)CC[C@]4(C)[C@H]3C[C@H](OC(=O)CCN)[C@]12C)OC(=O)CCCCC (stereo partly shown) [CSA-4206] | – | – | – | 32 µg/mL (≈ 35.9 µM) | 32 µg/mL (≈ 35.9 µM) | 8 µg/mL (≈ 8.97 µM) | 8 µg/mL (≈ 8.97 µM) | 8 (8) μg/mL | 8 µg/mL (≈ 8.97 µM) | ≤ 8 µg/mL | – | – | – | – | 32 (32) μg/mL | 8 (8) μg/mL
9 | CCCCCCCC(=O)OCC(COC(=O)CC[C@@H](C)[C@H]1CC[C@H]2[C@@H]3[C@H](OC(=O)CCN)C[C@@H]4C[C@H](OC(=O)CCN)CC[C@]4(C)[C@H]3C[C@H](OC(=O)CCN)[C@]12C)OC(=O)CCCCCCC (stereo partly shown) [CSA-4208] | – | – | – | > 100 µg/mL | 64 µg/mL (≈ 67.5 µM) | 64 µg/mL (≈ 67.5 µM) | 64 µg/mL (≈ 67.5 µM) | – | 64 µg/mL (≈ 67.5 µM) | 32 µg/mL (≈ 33.7 µM) | – | – | – | – | – | –
10 | CCCCCCCCCC(=O)OCC(COC(=O)CC[C@@H](C)[C@H]1CC[C@H]2[C@@H]3[C@H](OC(=O)CCN)C[C@@H]4C[C@H](OC(=O)CCN)CC[C@]4(C)[C@H]3C[C@H](OC(=O)CCN)[C@]12C)OC(=O)CCCCCCCCC (stereo partly shown) [CSA-4210] | – | – | – | > 100 µg/mL | > 100 µg/mL | > 100 µg/mL | > 100 µg/mL | – | > 100 µg/mL | > 100 µg/mL | – | – | – | – | – | –
